Experimental data reported in patent US10011589B2, “Treatments for gastrointestinal conditions” (BOARD OF REGENTS, THE UNIVERSITY OF TEXAS SYSTEM, priority 2014, dated 2018).
Values after ≈ are worked out from the molar mass of the structure shown. Where two headings read alike, the source gives them in different places.

Columns and labels:
[1] = test system: C. difficile strains R20291 and BAA-1875; assay: MIC testing against C. difficile strains R20291 and BAA-1875; assay type: cell-based, Clostridium difficile; conditions: for fold less active than 1971 (MIC): relative to parent 1971
Experimental: (§1) The synthesized compounds were initially tested against four virulent C. difficile strains: CD1803 (toxinotype III, 95 NAP1), CD1875 (toxinotype V, NAP7), R20291 (ribotype 027—from A. Sonenshein, Tufts University, USA), and BAA-1875 (ribotype 078, from American Type Culture Collection-ATCC). The activities (i.e. Minimum Inhibitory Concentrations-MICs) of test compounds were determined in 24 or 96 well microtitre plates using bacterial inocula of 10^6 cfu/mL and were defined as the lowest concentration of test compound that inhibited visible growth after 24 h of incubation at 37° C. in an A35 anaerobic chamber (Don-Whitley).

[2] = test system: C. difficile strain BAA-1803; assay: MIC against C. difficile strain BAA-1803; assay type: cell-based, Clostridium difficile; conditions: 3-position substituents
Experimental: as §1

[3] = test system: C. difficile strain ATCC 43596; assay: MIC against infecting strain ATCC 43596; assay type: cell-based, Clostridium difficile; conditions: infecting strain ATCC 43596
Caco-2 monolayer = assay: Caco-2 cell permeability assay; assay type: in vitro ADME
Experimental: The permeability co-efficient (Papp A-B) of the compounds were calculated and the ability of compounds to move from the apical to the basolateral side of Caco-2 monolayer is shown in FIG. 16.

[4] = In vitro microsomal stability; assay type: in vitro ADME; conditions: microsomes; data not shown; read-out: microsomal stability t½ (converted)
Source text: Thus, the very low concentration of the hybrids in the plasma might likely be due to a combination of poor intestinal absorption and hepatic clearance.

[5] = Pharmacokinetic study in hamsters, plasma; assay type: in vivo; conditions: male, Syrian, po, hamster, 100 mg/kg in PEG-400:water (85:15); for AUC: read-out: total exposure (AUC) in plasma
Experimental: (§2) Pharmacokinetic studies were assessed in male Syrian hamsters (˜100 g), from Charles-River, with each carrying a pre-implanted jugular vein cannula. Hamsters (n=5 per group) were fasted overnight and for the duration of the experiment (7 h). After collecting pre-dose blood samples (200 μL), animals were dosed with 100 mg/kg of compounds formulated in PEG-400:water (85:15). At various time points blood samples were collected into heparinized coated tubes that were centrifuged at 3000 rpm for 10 min to yield plasma, which was stored at −20° C. After dosing animals (n=3 per time point) as above, animals were humanely sacrificed at time points and their cecal contents collected and stored at −20° C. For plasma samples, 25 μL of plasma was placed in 384-well analytical plate and quenched by the addition of 50 μL of acetonitrile containing 4 mg/L warfarin as an internal standard. The plate was sealed, shaken at 600 rpm for 10 min, and then was centrifuged at 4000 rpm for 20 min. 15 μL of the supernatant was transferred to a new analytical 96-well plate and mixed with 100 μL of MilliQ water. The samples were analyzed by injecting 5 μL onto a Waters UPLC/SQD LC-MS/MS system. The cecal samples were processed by adding 100 μL of acetonitrile containing 4 mg/L of warfarin (internal standard) to the microfuge tubes containing cecal matter (˜50 mg). The suspension was vortexed for 10 sec, sonicated for 1 min and then centrifuged at 10,000 rpm for 10 min. Aliquots (50 μL) of the collected supernatants were then transferred to a 384-well plate and analyzed by high resolution mass spectroscopy using Waters XEVO QTOF LCMS.

[6] = Cecal content concentrations in hamsters; assay type: in vivo; conditions: for mean peak cecal concentration: hamster cecal contents at 1, 3 and 5 h after oral dosing 100 mg/kg, LLOQ 10 ng/mL
Experimental: as §2, with “After” for “Pharmacokinetic studies were assessed in male Syrian hamsters (˜100 g), from Charles-River, with each carrying a pre-implanted jugular vein cannula. Hamsters (n=5 per group) were fasted overnight and for the duration of the experiment (7 h). After collecting pre-dose blood samples (200 μL), animals were dosed with 100 mg/kg of compounds formulated in PEG-400:water (85:15). At various time points blood samples were collected into heparinized coated tubes that were centrifuged at 3000 rpm for 10 min to yield plasma, which was stored at −20° C. After”
To evaluate this in vivo, we determined the concentrations of the three compounds in the cecal contents recovered from hamsters at 1, 3 and 5 h time points following oral dosing (FIG. 19).

C. difficile = assay: MIC of nitro and des-nitro analogs (mode of action); assay type: cell-based, Clostridium difficile; conditions: Clostridioides difficile; des-nitro analogs (FIG. 11)
[7] = test system: C. difficile strain ATCC 43596; assay: Hamster model of CDI (efficacy); assay type: in vivo, Golden Syrian hamsters; conditions: vancomycin 20 mg/kg; hybrids 50 mg/kg
Experimental: Golden Syrian hamsters (˜100 g) from Charles River Laboratories were separately housed in sterile cages and maintained on sterile food and water. On day −1, animals were subcutaneously injected with clindamycin phosphate solution (50 mg/kg, from Hospira). After 20 h (day 0), hamsters were infected by oral gavage with 10^6 cfu of the C. difficile strain ATCC 43596 grown in Sporulation Medium and washed once with pre-reduced PBS; 15. […] After 5 days of treatment, surviving hamsters were monitored for up to 30 days for signs of disease as described by Anton et al. All moribund animals were euthanized, as well as those that survived the post-treatment monitoring period (30 days); ceca were recovered from all animals. All animal experiments were approved by The Institutional Animal Care and Use Committee of The University of Texas at Arlington.

[8] = literature; cited from earlier work
[9] = Clostridioides difficile, ATCC43596, read-out: MIC

SMILES: CC(=O)C1=C(O)C(CC(C)C)N(CCn2c([N+](=O)[O-])cnc2C)C1=O (stereo not drawn) [Compound 1971, 3-acetyl-4-hydroxy-5-isobutyl-1-(2-(2-methyl-5-nitro-1H-imidazol-1-yl)ethyl)-1H-pyrrol-2(5H)-one]
- MIC ([1]; Clostridioides difficile, BAA1875, C. difficile R20291 and BAA-1875 (FIG. 8), 24 h, 37° C., anaerobic): 1 to 2 µg/mL (≈ 2.85 to 5.71 µM)
- fold less active than metronidazole (MIC) ([1]; relative to metronidazole): 4 to 8 fold
- activity / MIC in words (FIG. 10) [2]: No difference in MIC
- MIC [3, 9]: 0.5 µg/mL (≈ 1.43 µM)

SMILES: Cc1cnc([N+](=O)[O-])n1CCNC(=O)C1=C(O)C(CC(C)C)NC1=O (stereo not drawn) [Compound 2122, 4-hydroxy-5-isobutyl-N-(2-(5-methyl-2-nitro-1H-imidazol-1-yl)ethyl)-2-oxo-2,5-dihydro-1H-pyrrole-3-carboxamide]
- fold less active than 1971 (MIC) [1]: 24 fold

SMILES: Cc1ncc([N+](=O)[O-])n1CC(=O)C1=C(O)C(CC(C)C)NC1=O (stereo not drawn) [Compound 2123, 4-hydroxy-5-isobutyl-3-(2-(2-methyl-5-nitro-1H-imidazol-1-yl)acetyl)-1H-pyrrol-2(5H)-one]
- fold less active than 1971 (MIC) [1]: 10 fold

SMILES: CC(=O)C1=C(O)CN(CCn2c([N+](=O)[O-])cnc2C)C1=O [Compound 2153, 3-acetyl-4-hydroxy-1-(2-(2-methyl-5-nitro-1H-imidazol-1-yl)ethyl)-1H-pyrrol-2(5H)-one]
- fold less active than 1971 (MIC) [1]: > 64 fold

SMILES: CC(=O)C1=C(O)C(Cc2ccccc2)N(CCn2c([N+](=O)[O-])cnc2C)C1=O (stereo not drawn) [Compound 2154, 3-acetyl-5-benzyl-4-hydroxy-1-(2-(2-methyl-5-nitro-1H-imidazol-1-yl)ethyl)-1H-pyrrol-2(5H)-one]
- Caco-2 permeation in words (Caco-2 monolayer; Caco-2): slightly more permeable than vancomycin
- permeability co-efficient (Papp A-B) (Caco-2 monolayer; Caco-2): 284.5±34.7 to 307±35.6

SMILES: CCC(C)C1C(O)=C(C(C)=O)C(=O)N1CCn1c([N+](=O)[O-])cnc1C (stereo not drawn) [Compound 2155, 3-acetyl-5-(sec-butyl)-4-hydroxy-1-(2-(2-methyl-5-nitro-1H-imidazol-1-yl)ethyl)-1H-pyrrol-2(5H)-one]
- Caco-2 permeation in words (Caco-2 monolayer; Caco-2): slightly more permeable than vancomycin
- permeability co-efficient (Papp A-B) (Caco-2 monolayer; Caco-2): 284.5±34.7 to 307±35.6

SMILES: CC(=O)C1=C(O)C(CSCc2ccccc2)N(CCn2c([N+](=O)[O-])cnc2C)C1=O (stereo not drawn) [Compound 2313, 3-acetyl-5-((benzylthio)methyl)-4-hydroxy-1-(2-(2-methyl-5-nitro-1H-imidazol-1-yl)ethyl)-1H-pyrrol-2(5H)-one]
- Caco-2 permeation in words (Caco-2 monolayer; Caco-2): slightly more permeable than vancomycin
- permeability co-efficient (Papp A-B) (Caco-2 monolayer; Caco-2): 284.5±34.7 to 307±35.6

SMILES: Cc1ncc([N+](=O)[O-])n1CCN1C(=O)C=C(O)C1CC(C)C.O=C(O)C(F)(F)F (stereo not drawn) [Compound 2314, 4-hydroxy-5-isobutyl-1-(2-(2-methyl-5-nitro-1H-imidazol-1-yl)ethyl)-1H-pyrrol-2(5H)-one, TFA]
- activity / MIC in words (FIG. 10) [2]: loss of activity

SMILES: Cc1ncc([N+](=O)[O-])n1CCN1C(=O)C(C(=O)c2ccc(F)cc2)=C(O)[C@H]1CC(C)C [Compound 2315, (R)-3-(4-fluorobenzoyl)-4-hydroxy-5-isobutyl-1-(2-(2-methyl-5-nitro-1H-imidazol-1-yl)ethyl)-1H-pyrrol-2(5H)-one]
- Caco-2 permeation in words (Caco-2 monolayer; Caco-2): slightly more permeable than vancomycin
- permeability co-efficient (Papp A-B) (Caco-2 monolayer; Caco-2): 284.5±34.7 to 307±35.6
- activity / MIC in words (FIG. 10) [2]: No difference in MIC

SMILES: CC(=O)C1=C(O)C(Cc2cccc3ccccc23)N(CCn2c([N+](=O)[O-])cnc2C)C1=O (stereo not drawn) [Compound 2344, 3-acetyl-4-hydroxy-1-(2-(2-methyl-5-nitro-1H-imidazol-1-yl)ethyl)-5-(naphthalen-1-ylmethyl)-1H-pyrrol-2(5H)-one]
- half-life [4]: 18 min
- Cmax [5]: 211 ng/mL
- Tmax [5]: 15 min
- AUC [5]: 386 ng·h/mL
- MIC [3, 9]: 0.25 µg/mL (≈ 0.575 µM)
- mean peak cecal concentration [6]: 2,678 ng/mL

SMILES: CC(=O)C1=C(O)C(Cc2ccc(-c3ccccc3)cc2)N(CCn2c([N+](=O)[O-])cnc2C)C1=O (stereo not drawn) [Compound 2345, 5-([1,1′-biphenyl]-4-ylmethyl)-3-acetyl-4-hydroxy-1-(2-(2-methyl-5-nitro-1H-imidazol-1-yl)ethyl)-1H-pyrrol-2(5H)-one]
- half-life [4]: 79.8 min
- Cmax [5]: 616 ng/mL
- Tmax [5]: 15 min
- AUC [5]: 355 ng·h/mL
- MIC [3, 9]: 0.25 µg/mL (≈ 0.543 µM)
- fold difference in cecal concentration of 2344 and 2345 ([6]; 2345 versus 2344): 12 fold
- mean peak cecal concentration [6]: 32,649 ng/mL

SMILES: CC(=O)C1=C(O)C(Cc2cn(C)c3ccccc23)N(CCn2c([N+](=O)[O-])cnc2C)C1=O (stereo not drawn) [Compound 2490]
- MIC [3]: 0.25 µg/mL (≈ 0.571 µM)

SMILES: CC(=O)C1=C(O)C(Cc2cccc3ccccc23)N(CCn2ccnc2C)C1=O (stereo not drawn) [Compound 2699, 3-acetyl-4-hydroxy-1-(2-(2-methyl-1H-imidazol-1-yl)ethyl)-5-(naphthalen-1-ylmethyl)-1H-pyrrol-2(5H)-one]
- MIC (C. difficile): > 128 µg/mL

SMILES: CC(=O)C1=C(O)C(Cc2ccc(-c3ccccc3)cc2)N(CCn2ccnc2C)C1=O (stereo not drawn) [Compound 2700, 5-([1,1′-biphenyl]-4-ylmethyl)-3-acetyl-4-hydroxy-1-(2-(2-methyl-1H-imidazol-1-yl)ethyl)-1H-pyrrol-2(5H)-one]
- MIC (C. difficile): > 128 µg/mL

SMILES: CN[C@H](CC(C)C)C(=O)N[C@H]1C(=O)N[C@@H](CC(N)=O)C(=O)N[C@H]2C(=O)N[C@H]3C(=O)N[C@H](C(=O)N[C@H](C(=O)O)c4cc(O)cc(O)c4-c4cc3ccc4O)[C@H](O)c3ccc(c(Cl)c3)Oc3cc2cc(c3O[C@@H]2O[C@H](CO)[C@@H](O)[C@H](O)[C@H]2O[C@H]2C[C@](C)(N)[C@H](O)[C@H](C)O2)Oc2ccc(cc2Cl)[C@H]1O [vancomycin]
- Caco-2 permeation in words (Caco-2 monolayer; apical to basolateral): poor permeation properties
- complete survival, days post-treatment [7]: more than 20 days
- absorbed from the gastrointestinal tract [8]: < 10%
